Experiments:
[1] = test system: eye muscle (lateral rectus muscle); type: in vivo, human
Description: In one embodiment, an eye muscle is selected for treatment. For an eye that is esotropic (turned inward or crossed), the physician will want to strengthen the lateral rectus muscle, which acts to pull the eye outward into better alignment. The surface of the eye is anesthetized with eye drops. A syringe is filled with up to 5.0 cc of bupivacaine, enough to fill the muscle and reach all the muscle fibers. The concentration of the bupivacaine solution is from 0.5% to 3.0%. The volume and concentration are varied depending on the amount of strengthening effect required. The syringe is attached to an injection needle insulated on its shaft. Therefore, the muscle electrical activity is picked up only with the exposed tip of the needle. The needle is attached to a wire leading to an electromyographic (EMG) recorder. A second wire leads to a ground attached to the skin of the patient's body. The eye is moved to a position at which the lateral rectus muscle to be treated is activated electrically as well as physically contracted. As the tip of the needle approaches the muscle area, the electrical activity is picked up and amplified by the EMG recorder as sound. The sound gets louder as the needle tip gets closer to and finally within the muscle. The needle is advanced behind the eye to the end of the muscle, about 3 cm, keeping the needle within the muscle, guided by the amplitude of the recorded sound. This is important, as the drug will anesthetize the nerves and the muscle with injection of the first few drops, thereafter leaving no guide as to position of the needle. The drug solution is injected starting at this deepest point, with continued injection of solution as the needle is withdrawn. In order to get the maximum effect, all the fibers of the muscle must be exposed to the drug. A smaller volume and concentration are applied when a sub-maximum effect is wanted. […] (Scott, A. B., Alexander, D. E., Miller, J. M., 2007, Bupivacaine injection of eye muscles to treat strabismus. Br J. Opthalmol. 91 (2), 146-148) In one case of eye muscle injection, I marked the solution with a contrast agent to show the exact location of the injected drug. […] All the same, the muscle became larger and stronger. This teaches that exposure of the fibers can also be effected by injecting around the muscle to bathe it. All the muscle fibers must be exposed to the drug to provide the maximal effect. Reducing exposure of the muscle fibers to the drug by reducing the volume of solution injected or by using a lower concentration of drug can be expected to provide a lesser effect. […]

[2] = test system: extensor digitorum longus muscle; details: rat hind limb, sufficient concentration and volume; cited from earlier work
skeletal muscle fibers = details: in vivo; cited from earlier work

Compound: CCCCN1CCCCC1C(=O)Nc1c(C)cccc1C (stereo not drawn) [bupivacaine]
- duration of muscle inactivity from the anesthetic effect ([1]; eye muscle injection, up to 5.0 cc, 0.5% to 3.0%): inactive for a day
- eye position and movement after recovery ([1]; eye muscle injection, as the muscle enlarges and strengthens): typically improve
- recovery from the myotoxic effect ([1]; in vivo): gradually recovers from the myotoxic effect of the drug over the next week
- effect on muscle size and strength ([1]; muscle fibers exposed to adequate concentration and volume of drug): enlarge and become stronger
- muscle size after injection [2]: enlargement of the muscle beyond its original size
- toxicity to muscle fibers (skeletal muscle fibers): irreversible breakdown of the muscle fibers

Source: US7632848B1, “Medical treatment of muscles by exposure to anesthetic drugs” (priority 2007, dated 2009)
